The results in this text go back to ChEMBL document CHEMBL1158927, “Facilitation of protein biosynthesis by ginsenoside-Rb2 administration in diabetic rats” (1990).

For assay [1], the system named is Rattus norvegicus. Kind of assay: Antidiabetic activity against streptozotocin-induced diabetic Wistar rat assessed as increase in serum albumin level at 10 mg/day, ip for 3 days measured after 3 days by BCG method (RVb=3.24+/-0.11 g/dl). The class given is functional.
For assay [2], the system named is Rattus norvegicus. Put plainly: Antidiabetic activity against streptozotocin-induced diabetic Wistar rat assessed as increase in incorporation of [14C]leucine in to hepatic nuclear fraction at 10 mg/day, ip measured per mg protein after 3 days (RVb=272+/-8 cpm). In kind it is functional.
In assay [3] the test system is Rattus norvegicus. Put plainly: Antidiabetic activity against streptozotocin-induced diabetic Wistar rat assessed as increase in incorporation of [14C]leucine into hepatic soluble fraction at 10 mg/day, ip measured per mg protein after 3 days (RVb=265+/-8 cpm). The class given is functional.
Assay [4] concerns Rattus norvegicus. Put plainly: Antidiabetic activity against streptozotocin-induced diabetic Wistar rat assessed as increase in serum protein level at 10 mg/day, ip for 3 days measured after 6 days by biuret method (RVb=4.86+/-0.30 g/dl). In kind it is functional.
For assay [5], the system named is Rattus norvegicus. Put plainly: Antidiabetic activity against streptozotocin-induced diabetic Wistar rat assessed as increase in incorporation of [14C]leucine into hepatic homogenate at 10 mg/day, ip measured per mg protein after 3 days (RVb=401+/-16 cpm). The class given is functional.
In assay [6] the test system is Rattus norvegicus. Kind of assay: Antidiabetic activity against streptozotocin-induced diabetic Wistar rat assessed as increase in incorporation of [14C]leucine in to hepatic […] fraction at 10 mg/day, ip measured per mg protein after 3 days (RVb=377+/-10 cpm). In kind it is functional.
The subject of assay [7] is Rattus norvegicus. Put plainly: Antidiabetic activity against streptozotocin-induced diabetic Wistar rat assessed as increase in incorporation of [14C]leucine in to hepatic nuclear fraction at 10 mg/day, ip measured per mg protein after 6 days (RVb=273+/-8 cpm). In kind it is functional.
For assay [8], the system named is Rattus norvegicus. Put plainly: Antidiabetic activity against streptozotocin-induced diabetic Wistar rat assessed as […] in incorporation of [14C]leucine into per mg serum protein at 10 mg/day, ip measured after 3 days (RVb=640+/-50 cpm). The class given is functional.
The test system of assay [9] is Rattus norvegicus. Put plainly: Antidiabetic activity against streptozotocin-induced diabetic Wistar rat assessed as decrease in serum glucose level at 10 mg/day, ip for 3 days measured after 6 days (RVb=401+/-10.7 mg/dl). The class given is functional.
In assay [10] the test system is Rattus norvegicus. Put plainly: Antidiabetic activity against streptozotocin-induced diabetic Wistar rat assessed as increase in incorporation of [14C]leucine into hepatic soluble fraction at 10 mg/day, ip measured per mg protein after 6 days (RVb=227+/-8 cpm). The class given is functional.
Assay [11] deals with Rattus norvegicus. Put plainly: Antidiabetic activity against streptozotocin-induced diabetic Wistar rat assessed as increase in incorporation of [14C]leucine into hepatic […] fraction at 10 mg/day, ip measured per mg protein after 6 days (RVb=357+/-14 cpm). The class given is functional.
For assay [12], the system named is Rattus norvegicus. Put plainly: Antidiabetic activity against streptozotocin-induced diabetic Wistar rat assessed as decrease in serum glucose level at 10 mg/day, ip for 3 days measured after 3 days (RVb=396+/-18.7 mg/dl). In kind it is functional.
Assay [13] deals with Rattus norvegicus. Kind of assay: Antidiabetic activity against streptozotocin-induced diabetic Wistar rat assessed as increase in incorporation of [14C]leucine into hepatic microsomal fraction at 10 mg/day, ip measured per mg protein after 3 days (RVb=555+/-33 cpm). In kind it is functional, Liver.
For assay [14], the system named is Rattus norvegicus. Kind of assay: Antidiabetic activity against streptozotocin-induced diabetic Wistar rat assessed as increase in serum protein level at 10 mg/day, ip for 3 days measured after 3 days by biuret method (RVb=5.06+/-0.18 g/dl). The class given is functional.
In assay [15] the test system is Rattus norvegicus. Put plainly: Antidiabetic activity against streptozotocin-induced diabetic Wistar rat assessed as increase in incorporation of [14C]leucine into hepatic microsomal fraction at 10 mg/day, ip measured per mg protein after 6 days (RVb=499+/-57 cpm). The class given is functional, Liver.
Assay [16] has as its system Rattus norvegicus. Put plainly: Antidiabetic activity against streptozotocin-induced diabetic Wistar rat assessed as […] in incorporation of [14C]leucine into per mg of serum protein at 10 mg/day, ip measured after 6 days (RVb=612+/-40 cpm). The class given is functional.
For assay [17], the system named is Rattus norvegicus. Put plainly: Antidiabetic activity against streptozotocin-induced diabetic Wistar rat assessed as increase in serum protein level at 10 mg/day, ip for 6 days by biuret method. The class given is functional.
The subject of assay [18] is Rattus norvegicus. Put plainly: Antidiabetic activity against streptozotocin-induced diabetic Wistar rat assessed as increase in serum albumin level at 10 mg/day, ip for 3 days measured after 6 days by BCG method (RVb=3.07+/-0.08 g/dl). The class given is functional.
Assay [19] concerns Rattus norvegicus. Kind of assay: Antidiabetic activity against streptozotocin-induced diabetic Wistar rat assessed as increase in incorporation of [14C]leucine into hepatic homogenate at 10 mg/day, ip measured per mg protein after 6 days (RVb=372+/-3 cpm). The class given is functional.

In the case of `CC(C)=CCC[C@](C)(O[C@@H]1O[C@H](CO[C@@H]2OC[C@H](O)[C@H](O)[C@H]2O)[C@@H](O)[C@H](O)[C@H]1O)[C@H]1CC[C@]2(C)[C@@H]1[C@H](O)C[C@@H]1[C@@]3(C)CC[C@H](O[C@@H]4O[C@H](CO)[C@@H](O)[C@H](O)[C@H]4O[C@@H]4O[C@H](CO)[C@@H](O)[C@H](O)[C@H]4O)C(C)(C)[C@@H]3CC[C@]12C` [GINSENOSIDE RB2], the Activity in the assay with Rattus norvegicus [1] stood at 3.24 g/dL; in the assay on Rattus norvegicus [2], 294 cpm; in the assay with Rattus norvegicus [3] it was 287 cpm; in the assay with Rattus norvegicus [4] it was 5.68 g/dL; in the assay with Rattus norvegicus [5], 481 cpm; with Rattus norvegicus [6] it was 426 cpm. In addition, the Activity stood at 314 cpm with Rattus norvegicus [7]; 921 cpm with Rattus norvegicus [8]; 321 mg/dL in the assay with Rattus norvegicus [9]; 242 cpm in the assay with Rattus norvegicus [10]; 395 cpm in the assay on Rattus norvegicus [11]; 337.2 mg/dL in the assay with Rattus norvegicus [12]. In addition, the Activity in the assay with Rattus norvegicus [13] turned out to be 689 cpm; with Rattus norvegicus [14], 5.11 g/dL; with Rattus norvegicus [15], 737 cpm; in the assay with Rattus norvegicus [16], 699 cpm; in the assay with Rattus norvegicus [17] it was 17%; with Rattus norvegicus [18], 3.39 g/dL. For the same compound, in the assay on Rattus norvegicus [19], the Activity stood at 424 cpm.
